Laboratory results reported in BigSolDB 2.1.

CC(=O)c1c(C)c([N+](=O)[O-])c(C(C)(C)C)c([N+](=O)[O-])c1C
solubility (mole fraction)
Details | 278.15 K | 283.15 K | 288.15 K | 293.15 K | 298.15 K | 303.15 K | 308.15 K | 313.15 K | 318.15 K
in DMAc | 0.113 | 0.129 | 0.147 | 0.165 | 0.185 | 0.206 | 0.228 | 0.252 | 0.278
in DMF | 0.0732 | 0.0856 | 0.0993 | 0.115 | 0.131 | 0.149 | 0.169 | 0.191 | 0.215
in THF | 0.148 | 0.165 | 0.183 | 0.202 | 0.221 | 0.243 | 0.266 | 0.288 | 0.313
in acetonitrile | 0.0141 | 0.0174 | 0.0213 | 0.0259 | 0.0314 | 0.0379 | 0.0455 | 0.0545 | 0.0644
in cyclohexane | 0.00275 | 0.00348 | 0.00439 | 0.00547 | 0.0068 | 0.00853 | 0.0104 | 0.0127 | 0.0153
in ethanol | 0.00201 | 0.00251 | 0.00304 | 0.00364 | 0.00435 | 0.00521 | 0.00622 | 0.00743 | 0.00869
in ethyl acetate | 0.065 | 0.0744 | 0.0846 | 0.0959 | 0.108 | 0.121 | 0.136 | 0.151 | 0.168
in isopropanol | 0.00159 | 0.002 | 0.00259 | 0.00332 | 0.00414 | 0.00521 | 0.00651 | 0.008 | 0.00982
in methanol | 0.00127 | 0.00155 | 0.00188 | 0.00227 | 0.00272 | 0.00324 | 0.00385 | 0.00455 | 0.00533
in n-butanol | 0.00299 | 0.0037 | 0.00455 | 0.00557 | 0.00679 | 0.00823 | 0.00993 | 0.0119 | 0.0141
in n-heptane | 0.00184 | 0.00228 | 0.00281 | 0.00344 | 0.00419 | 0.00508 | 0.00613 | 0.00737 | 0.00878
in n-hexane | 0.00164 | 0.00202 | 0.00248 | 0.00302 | 0.00365 | 0.0044 | 0.00527 | 0.00629 | 0.00744
